Reference: ChEMBL document CHEMBL4507296 (2021)

Experiments:
[1] = target: ALK tyrosine kinase receptor (Homo sapiens) (UniProt Q9UM73); conditions: Compound concentration 1000.0 nM
[2] = target: Homeodomain-interacting protein kinase 2 (Homo sapiens) (UniProt Q9H2X6); conditions: Compound concentration 1000.0 nM
[3] = target: TRAF2 and NCK-interacting protein kinase (Homo sapiens) (UniProt Q9UKE5); conditions: Compound concentration 1000.0 nM
[4] = target: cAMP-dependent protein kinase catalytic subunit PRKX (Homo sapiens) (UniProt P51817); conditions: Compound concentration 1000.0 nM
Sequence of cAMP-dependent protein kinase catalytic subunit PRKX (Homo sapiens) (P51817 whole entry): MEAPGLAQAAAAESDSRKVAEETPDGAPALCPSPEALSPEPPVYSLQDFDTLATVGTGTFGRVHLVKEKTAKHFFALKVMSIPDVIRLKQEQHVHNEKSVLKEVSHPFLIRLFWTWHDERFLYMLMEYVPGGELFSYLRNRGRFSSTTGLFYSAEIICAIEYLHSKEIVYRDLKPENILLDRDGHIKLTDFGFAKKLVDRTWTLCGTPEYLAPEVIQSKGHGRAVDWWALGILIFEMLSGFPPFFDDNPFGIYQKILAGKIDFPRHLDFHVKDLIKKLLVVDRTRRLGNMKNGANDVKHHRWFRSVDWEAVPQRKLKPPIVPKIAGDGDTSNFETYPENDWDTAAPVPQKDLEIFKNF

[5] = target: Serine/threonine-protein kinase Nek6 (Homo sapiens) (UniProt Q9HC98); conditions: Compound concentration 1000.0 nM
[6] = target: Muscarinic acetylcholine receptor M3 (Homo sapiens) (UniProt P20309); assay: Muscarinic M3 (human) CEREP ligand profiling; conditions: Compound concentration 10.0 uM
[7] = target: Mitogen-activated protein kinase kinase kinase kinase 5 (Homo sapiens) (UniProt Q9Y4K4); conditions: Compound concentration 1000.0 nM
[8] = target: Tyrosine-protein kinase Mer (Homo sapiens) (UniProt Q12866); conditions: Compound concentration 1000.0 nM
[9] = test system: Tyrosine-protein kinase ABL1 (Homo sapiens), P00519 [H396P]; conditions: Compound concentration 1000.0 nM
[10] = target: Ephrin type-A receptor 7 (Homo sapiens) (UniProt Q15375); conditions: Compound concentration 1000.0 nM
[11] = target: Ribosomal protein S6 kinase alpha-6 (Homo sapiens) (UniProt Q9UK32); conditions: Compound concentration 1000.0 nM
Sequence of Ribosomal protein S6 kinase alpha-6 (Homo sapiens) (Q9UK32 whole entry): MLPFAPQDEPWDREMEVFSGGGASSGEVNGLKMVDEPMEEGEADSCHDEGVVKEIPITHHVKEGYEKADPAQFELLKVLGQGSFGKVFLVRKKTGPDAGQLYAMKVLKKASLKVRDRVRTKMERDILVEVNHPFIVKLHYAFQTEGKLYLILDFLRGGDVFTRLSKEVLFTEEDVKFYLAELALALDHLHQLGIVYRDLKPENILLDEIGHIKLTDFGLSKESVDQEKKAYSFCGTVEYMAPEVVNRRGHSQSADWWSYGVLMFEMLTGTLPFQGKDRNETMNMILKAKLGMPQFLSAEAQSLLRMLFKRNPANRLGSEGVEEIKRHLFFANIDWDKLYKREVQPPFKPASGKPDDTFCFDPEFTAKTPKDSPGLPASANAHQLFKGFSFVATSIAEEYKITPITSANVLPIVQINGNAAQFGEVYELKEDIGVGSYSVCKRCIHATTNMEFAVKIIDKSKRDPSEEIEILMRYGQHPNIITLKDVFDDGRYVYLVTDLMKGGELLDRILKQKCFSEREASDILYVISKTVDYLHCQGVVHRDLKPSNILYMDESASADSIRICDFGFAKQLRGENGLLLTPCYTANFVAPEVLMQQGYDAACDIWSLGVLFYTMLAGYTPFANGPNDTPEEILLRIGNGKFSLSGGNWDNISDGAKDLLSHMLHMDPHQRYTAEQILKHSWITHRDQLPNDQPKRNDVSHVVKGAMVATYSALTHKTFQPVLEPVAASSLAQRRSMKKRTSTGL

[12] = target: Mitogen-activated protein kinase 4 (Homo sapiens) (UniProt P31152); conditions: Compound concentration 1000.0 nM
Sequence of Mitogen-activated protein kinase 4 (Homo sapiens) (P31152 whole entry): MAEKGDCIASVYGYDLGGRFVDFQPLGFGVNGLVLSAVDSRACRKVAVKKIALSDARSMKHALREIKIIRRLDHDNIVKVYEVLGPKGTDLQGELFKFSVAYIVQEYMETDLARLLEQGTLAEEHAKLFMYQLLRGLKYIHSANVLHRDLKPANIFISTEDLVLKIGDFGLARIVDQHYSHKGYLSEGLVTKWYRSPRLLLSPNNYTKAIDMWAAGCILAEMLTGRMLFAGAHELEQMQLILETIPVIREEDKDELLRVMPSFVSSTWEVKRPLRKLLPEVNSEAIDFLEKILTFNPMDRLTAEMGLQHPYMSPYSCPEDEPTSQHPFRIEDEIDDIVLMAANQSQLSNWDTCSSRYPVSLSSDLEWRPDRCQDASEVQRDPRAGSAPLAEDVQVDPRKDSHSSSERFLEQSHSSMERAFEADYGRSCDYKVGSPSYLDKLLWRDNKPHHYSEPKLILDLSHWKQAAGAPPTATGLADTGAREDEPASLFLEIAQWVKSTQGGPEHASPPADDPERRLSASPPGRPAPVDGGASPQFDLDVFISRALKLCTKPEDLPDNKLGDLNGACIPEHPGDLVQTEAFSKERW

[13] = target: Activin receptor type-2B (Homo sapiens) (UniProt Q13705); conditions: Compound concentration 1000.0 nM
[14] = target: Myosin light chain kinase (Homo sapiens) (UniProt Q32MK0); conditions: Compound concentration 1000.0 nM
[15] = target: Dual specificity protein kinase CLK3 (Homo sapiens) (UniProt P49761); conditions: Compound concentration 1000.0 nM
[16] = target: Casein kinase I isoform delta (Homo sapiens) (UniProt P48730); conditions: Compound concentration 1000.0 nM
Sequence of Casein kinase I isoform delta (Homo sapiens) (P48730 whole entry, looked up, canonical isoform): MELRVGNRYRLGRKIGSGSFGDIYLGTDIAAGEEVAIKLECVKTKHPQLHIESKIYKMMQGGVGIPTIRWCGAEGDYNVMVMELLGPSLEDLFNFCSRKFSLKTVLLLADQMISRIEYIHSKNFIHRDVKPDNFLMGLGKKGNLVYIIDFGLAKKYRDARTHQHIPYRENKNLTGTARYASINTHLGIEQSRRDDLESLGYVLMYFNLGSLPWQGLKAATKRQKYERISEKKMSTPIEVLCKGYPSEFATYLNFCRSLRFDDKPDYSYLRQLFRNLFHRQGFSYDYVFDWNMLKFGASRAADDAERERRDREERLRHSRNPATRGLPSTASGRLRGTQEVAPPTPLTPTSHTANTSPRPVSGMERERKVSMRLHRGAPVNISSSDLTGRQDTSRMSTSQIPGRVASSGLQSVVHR

[17] = test system: Serine/threonine-protein kinase B-raf (Homo sapiens), P15056 [V600E]; conditions: Compound concentration 1000.0 nM
[18] = target: Non-receptor tyrosine-protein kinase TNK1 (Homo sapiens) (UniProt Q13470); conditions: Compound concentration 1000.0 nM
[19] = target: Serine/threonine-protein kinase Sgk1 (Homo sapiens) (UniProt O00141); conditions: Compound concentration 1000.0 nM
Sequence of Serine/threonine-protein kinase Sgk1 (Homo sapiens) (O00141 whole entry): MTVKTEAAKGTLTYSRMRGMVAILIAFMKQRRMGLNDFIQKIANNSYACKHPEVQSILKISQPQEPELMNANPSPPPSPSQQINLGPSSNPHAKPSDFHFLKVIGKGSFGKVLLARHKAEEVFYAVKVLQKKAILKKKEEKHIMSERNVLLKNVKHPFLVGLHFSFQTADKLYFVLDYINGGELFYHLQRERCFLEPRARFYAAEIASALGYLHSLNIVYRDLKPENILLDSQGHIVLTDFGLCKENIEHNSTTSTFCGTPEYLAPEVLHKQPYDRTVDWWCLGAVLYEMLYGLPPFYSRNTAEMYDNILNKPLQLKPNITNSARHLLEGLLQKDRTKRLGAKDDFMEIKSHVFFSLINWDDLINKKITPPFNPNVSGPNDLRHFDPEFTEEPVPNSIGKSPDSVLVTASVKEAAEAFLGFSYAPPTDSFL

[20] = target: Hormonally up-regulated neu tumor-associated kinase (Homo sapiens) (UniProt P57058); conditions: Compound concentration 1000.0 nM
[21] = target: Ankyrin repeat and protein kinase domain-containing protein 1 (Homo sapiens) (UniProt Q8NFD2); conditions: Compound concentration 1000.0 nM
[22] = target: Serine/threonine-protein kinase PLK3 (Homo sapiens) (UniProt Q9H4B4); conditions: Compound concentration 1000.0 nM
[23] = target: Sigma non-opioid intracellular receptor 1 (Homo sapiens) (UniProt Q99720); conditions: Compound concentration 10.0 uM
Sequence of Sigma non-opioid intracellular receptor 1 (Homo sapiens) (Q99720 whole entry): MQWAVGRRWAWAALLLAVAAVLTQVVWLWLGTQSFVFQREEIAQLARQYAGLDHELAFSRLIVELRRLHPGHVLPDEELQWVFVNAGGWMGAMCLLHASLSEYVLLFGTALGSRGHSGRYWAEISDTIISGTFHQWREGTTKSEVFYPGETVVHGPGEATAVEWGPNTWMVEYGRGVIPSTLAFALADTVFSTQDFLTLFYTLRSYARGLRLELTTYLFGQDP

[24] = target: Ephrin type-B receptor 1 (Homo sapiens) (UniProt P54762); conditions: Compound concentration 1000.0 nM
[25] = target: Serine/threonine-protein kinase/endoribonuclease IRE1 (Homo sapiens) (UniProt O75460); conditions: Compound concentration 1000.0 nM
[26] = target: Receptor-type tyrosine-protein kinase FLT3 (Homo sapiens) (UniProt P36888); conditions: Compound concentration 1000.0 nM
[27] = target: Beta-2 adrenergic receptor (Homo sapiens) (UniProt P07550); conditions: Compound concentration 10.0 uM
Sequence of Beta-2 adrenergic receptor (Homo sapiens) (P07550 whole entry, looked up): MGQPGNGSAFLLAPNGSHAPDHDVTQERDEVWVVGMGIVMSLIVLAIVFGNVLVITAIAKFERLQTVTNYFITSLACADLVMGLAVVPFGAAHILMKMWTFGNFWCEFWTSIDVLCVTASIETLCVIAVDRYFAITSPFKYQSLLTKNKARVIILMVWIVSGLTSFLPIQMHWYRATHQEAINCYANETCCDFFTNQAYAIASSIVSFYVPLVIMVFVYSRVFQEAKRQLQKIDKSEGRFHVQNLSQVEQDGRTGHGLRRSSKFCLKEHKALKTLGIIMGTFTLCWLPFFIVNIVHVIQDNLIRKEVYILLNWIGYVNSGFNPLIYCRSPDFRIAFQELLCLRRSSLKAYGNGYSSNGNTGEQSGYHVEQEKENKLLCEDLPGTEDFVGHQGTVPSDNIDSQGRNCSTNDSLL

[28] = target: Ribosomal protein S6 kinase alpha-3 (Homo sapiens) (UniProt P51812); conditions: Compound concentration 1000.0 nM
[29] = test system: Receptor-type tyrosine-protein kinase FLT3 (Homo sapiens), P36888 [UNDEFINED MUTATION]; conditions: Compound concentration 1000.0 nM
[30] = target: Cyclin-dependent kinase 11A (Homo sapiens) (UniProt Q9UQ88); conditions: Compound concentration 1000.0 nM
[31] = target: Casein kinase I isoform gamma-1 (Homo sapiens) (UniProt Q9HCP0); conditions: Compound concentration 1000.0 nM
[32] = target: Casein kinase I isoform gamma-2 (Homo sapiens) (UniProt P78368); conditions: Compound concentration 1000.0 nM
[33] = target: Serine/threonine-protein kinase SIK1 (Homo sapiens) (UniProt P57059); conditions: Compound concentration 1000.0 nM
[34] = target: Serine/threonine-protein kinase RIO1 (Homo sapiens) (UniProt Q9BRS2); conditions: Compound concentration 1000.0 nM
[35] = target: TGF-beta receptor type-2 (Homo sapiens) (UniProt P37173); conditions: Compound concentration 1000.0 nM
[36] = target: Fibroblast growth factor receptor 3 (Homo sapiens) (UniProt P22607); conditions: Compound concentration 1000.0 nM
[37] = target: Tyrosine-protein kinase BTK (Homo sapiens) (UniProt Q06187); conditions: Compound concentration 1000.0 nM
Sequence of Tyrosine-protein kinase BTK (Homo sapiens) (Q06187 whole entry): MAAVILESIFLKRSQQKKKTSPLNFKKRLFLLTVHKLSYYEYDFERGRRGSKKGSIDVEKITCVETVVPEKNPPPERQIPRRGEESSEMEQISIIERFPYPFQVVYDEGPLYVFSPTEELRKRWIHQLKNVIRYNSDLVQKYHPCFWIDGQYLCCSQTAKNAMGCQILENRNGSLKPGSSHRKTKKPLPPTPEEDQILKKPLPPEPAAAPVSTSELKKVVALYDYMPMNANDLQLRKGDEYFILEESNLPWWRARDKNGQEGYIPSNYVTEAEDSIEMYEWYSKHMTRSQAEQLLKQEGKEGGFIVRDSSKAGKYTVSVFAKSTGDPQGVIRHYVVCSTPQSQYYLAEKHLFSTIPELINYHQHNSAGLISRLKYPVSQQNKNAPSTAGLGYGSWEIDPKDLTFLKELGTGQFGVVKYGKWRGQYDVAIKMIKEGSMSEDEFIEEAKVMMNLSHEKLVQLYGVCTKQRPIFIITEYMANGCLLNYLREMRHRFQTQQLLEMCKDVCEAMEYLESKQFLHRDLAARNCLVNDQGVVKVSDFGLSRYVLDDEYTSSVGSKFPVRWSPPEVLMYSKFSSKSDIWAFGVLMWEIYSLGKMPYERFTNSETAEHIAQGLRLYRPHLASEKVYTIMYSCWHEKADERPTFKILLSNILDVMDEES

[38] = target: Protein kinase C eta type (Homo sapiens) (UniProt P24723); conditions: Compound concentration 1000.0 nM
[39] = target: Microtubule-associated serine/threonine-protein kinase 1 (Homo sapiens) (UniProt Q9Y2H9); conditions: Compound concentration 1000.0 nM
[40] = target: Non-receptor tyrosine-protein kinase TYK2 (Homo sapiens) (UniProt P29597); conditions: Compound concentration 1000.0 nM
Sequence of Non-receptor tyrosine-protein kinase TYK2 (Homo sapiens) (P29597 whole entry): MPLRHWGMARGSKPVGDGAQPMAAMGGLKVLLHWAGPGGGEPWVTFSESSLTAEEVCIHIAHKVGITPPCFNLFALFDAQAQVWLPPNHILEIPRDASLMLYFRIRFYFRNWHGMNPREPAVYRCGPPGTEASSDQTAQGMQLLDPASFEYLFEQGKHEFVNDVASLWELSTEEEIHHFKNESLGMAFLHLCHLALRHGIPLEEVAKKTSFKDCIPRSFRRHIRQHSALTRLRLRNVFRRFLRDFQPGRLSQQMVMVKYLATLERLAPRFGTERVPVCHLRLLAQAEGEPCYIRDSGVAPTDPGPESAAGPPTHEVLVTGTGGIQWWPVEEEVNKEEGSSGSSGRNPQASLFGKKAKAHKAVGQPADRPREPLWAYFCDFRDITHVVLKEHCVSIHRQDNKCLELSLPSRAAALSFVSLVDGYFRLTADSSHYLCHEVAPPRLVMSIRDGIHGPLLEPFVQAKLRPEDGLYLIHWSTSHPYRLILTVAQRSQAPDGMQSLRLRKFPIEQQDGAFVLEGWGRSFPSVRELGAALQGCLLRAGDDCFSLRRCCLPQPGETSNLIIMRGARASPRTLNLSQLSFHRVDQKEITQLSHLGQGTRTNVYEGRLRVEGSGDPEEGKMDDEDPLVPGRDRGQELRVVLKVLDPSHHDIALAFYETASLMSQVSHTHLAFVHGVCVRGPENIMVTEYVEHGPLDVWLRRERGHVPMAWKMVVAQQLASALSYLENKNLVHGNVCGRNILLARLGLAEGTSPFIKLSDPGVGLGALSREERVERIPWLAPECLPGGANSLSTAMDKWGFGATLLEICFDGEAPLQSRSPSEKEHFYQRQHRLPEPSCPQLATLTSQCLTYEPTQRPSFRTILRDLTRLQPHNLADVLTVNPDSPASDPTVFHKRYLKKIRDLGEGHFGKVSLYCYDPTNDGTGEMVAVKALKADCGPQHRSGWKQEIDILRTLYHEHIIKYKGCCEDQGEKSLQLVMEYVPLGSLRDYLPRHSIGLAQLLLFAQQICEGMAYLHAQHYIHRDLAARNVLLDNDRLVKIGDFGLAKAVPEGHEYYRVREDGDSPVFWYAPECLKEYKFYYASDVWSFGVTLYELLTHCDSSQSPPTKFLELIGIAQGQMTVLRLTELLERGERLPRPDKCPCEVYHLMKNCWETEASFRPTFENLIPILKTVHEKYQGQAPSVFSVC

[41] = target: Tyrosine-protein kinase ABL2 (Homo sapiens) (UniProt P42684); conditions: Compound concentration 1000.0 nM
[42] = target: Serine/threonine-protein kinase NLK (Homo sapiens) (UniProt Q9UBE8); conditions: Compound concentration 1000.0 nM
[43] = target: Mitogen-activated protein kinase kinase kinase kinase 4 (Homo sapiens) (UniProt O95819); conditions: Compound concentration 1000.0 nM
[44] = target: Atypical kinase COQ8B, mitochondrial (Homo sapiens) (UniProt Q96D53); conditions: Compound concentration 1000.0 nM
[45] = target: Mitogen-activated protein kinase kinase kinase 6 (Homo sapiens) (UniProt O95382); conditions: Compound concentration 1000.0 nM

C[C@H](c1ccc(F)cc1)N(Cc1cccc(C(=O)O)c1)C(=O)c1cnc2ccccc2c1 [PF-05105679]
inactive: residual activity [1] 94% | residual activity [2] 100% | residual activity [3] 95% | residual activity [4] 100% | residual activity [5] 92% | inhibition [6] 21% | residual activity [7] 100% | residual activity [8] 95% | residual activity [9] 100% | residual activity [10] 80% | residual activity [11] 100% | residual activity [12] 93% | residual activity [13] 100% | residual activity [14] 100% | residual activity [15] 100% | residual activity [16] 92% | residual activity [17] 100% | residual activity [18] 100% | residual activity [19] 81% | residual activity [20] 100% | residual activity [21] 81% | residual activity [22] 100% | inhibition [23] 16% | residual activity [24] 83% | residual activity [25] 78% | residual activity [26] 100% | inhibition [27] 23.7% | residual activity [28] 100% | residual activity [29] 100% | residual activity [30] 100% | residual activity [31] 91% | residual activity [32] 100% | residual activity [33] 90% | residual activity [34] 100% | residual activity [35] 100% | residual activity [36] 82% | residual activity [37] 95% | residual activity [38] 75% | residual activity [39] 100% | residual activity [40] 100% | residual activity [41] 82% | residual activity [42] 86% | residual activity [43] 96% | residual activity [44] 86% | residual activity [45] 84%
